The test system of data set [1] is permeabilized human peripheral blood mononuclear cells (PBMCs). In words: High-resolution respirometry of permeabilized human PBMCs. The following applies: PBMC, read-out: IC50 for inhibition of OXPHOSCI capacity.
Experimental: Real-time respirometric measurements were performed using high-resolution oxygraphs (Oxygraph-2k, Oroboros Instruments, Innsbruck, Austria). The experimental conditions during the measurements were the following: 37° C., 2 mL active chamber volume and 750 rpm stirrer speed. […] For data recording, DatLab software version 4 and 5 were used (Oroboros Instruments, Innsbruck, Austria). Settings, daily calibration and instrumental background corrections were conducted according to the manufacturer's instructions. […] All measurements were performed at a platelet concentration of 200×10^6 cells per mL or a PBMC concentration of 5×10^6 cells per mL. […] Maximal uncoupled respiratory electron transport system capacity supported by convergent input through complex I and […] ) was evaluated by subsequent titration with the protonophore carbonylcyanide p-(trifluoromethoxy) phenylhydrazone (FCCP). […] Complex IV activity was calculated by subtracting the sodium azide value from the TMPD value. With exception of complex IV activity, all respiratory states were measured at steady-state and corrected for ROX. Complex IV activity was measured after ROX determination and not at steady-state.
The conditions of data set [2]: case report; cited from earlier work.
For data set [3] the following is noted: patients; cited from earlier work.
The subject of a further data set is intact human platelets. In words: Lactate production and pH of intact human platelets. It counts as cell-based. The following applies: 8 h; metformin 1 and 10 mM, phenformin 0.5 mM, rotenone 2 μM. The method, then: Lactate levels are determined every 30 min using the Lactate Pro™ 2 blood lactate test meter (Arkray, Alere A B, Lidingö, Sweden) or similar types of measurements. Incubation is performed at 37° C. pH is measured at start, after 4 and after 8 h (or more frequently) of incubation using a Standard pH Meter, e.g. PHM210 (Radiometer, Copenhagen, Denmark). Drug candidates are added to the assay from start or following 30-60 min at concentrations within the range 10 μM-5 mM. […] In order to evaluate the specificity of the drug candidate, it is also tested in combination with a down-stream inhibitor of respiration such as the complex III inhibitor Antimycin at 1 μg/mL, which should abolish the effect of the drug candidate and restore the production of lactate.
Incubation was performed at 37° C. at a stirrer speed of 750 rpm, and pH was measured at start, after 4 and after 8 h of incubation (n=4) using a PHM210 Standard pH Meter (Radiometer, Copenhagen, Denmark).

Data set [4] has as its system permeabilized human platelets. Briefly: cells. The method, then: Lactate production of intact human platelets was determined in PBS containing 10 mM glucose.
Subsequently the FADH2-linked substrate succinate (10 mM) was given to determine convergent complex I- and II-dependent OXPHOS capacity (OXPHOSCI+II). […] Finally, the artificial complex IV substrate N,N,N′,N′-tetramethyl-p-phenylenediamine dihydrochloride (TMPD, 0.5 mM) was added and the complex IV inhibitor sodium azide (10 mM) was given to measure complex IV activity and chemical background, respectively.

Each structure is given as a SMILES string. pIC50: −log10 of the molar value.

By pIC50 is commonly meant the IC50 on a negative log10 scale, so that one unit is a factor of ten.

On to `CN(C)C(=N)N=C(N)N` [Metformin], for which, in data set [1], the pIC50 is 3.35. Also, the “serum level in involuntary intoxication, prior to hemodialysis” value in data set [2] is “over 2 mM”.
Consider `[H]/N=C(/N)N/C(=N/[H])NCCc1ccccc1` [Phenformin], for which the “incidence of lactic acidosis” value in data set [3] is given as 4 cases per 10000 treatment-years. Also, the “lactate production compared to control” value in the data set on intact human platelets is listed as “significantly more lactate”. In data set [4] (Homo sapiens, Platelet, 10 min, read-out: IC50 for inhibition of OXPHOSCI capacity), the pIC50 is 4.24. Further, the “ETSCII capacity and complex IV activity” value in data set [4] (permeabilized platelets, compared to controls) is “not ETSCII or respiration specific to complex IV”. The “potency of OXPHOSCI inhibition relative to metformin” value in data set [4] (permeabilized platelets, phenformin vs metformin) was found to be 20 fold.

The values are drawn from patent US10307389B2, “Succinate prodrugs for use in the treatment of lactic acidosis or drug-induced side-effects due to Complex I-related impairment of mitochondrial oxidative phosphorylation” (NEUROVIVE PHARMACEUTICAL AB, priority 2014, dated 2019).
